Measured values: paper PMC12735718, “Novel Adamantane–Sclareol Hybrids Exploit ROS Vulnerability to Overcome Multidrug-Resistance in Glioblastoma Cells” (Molecules, 2025)

Columns and labels:
[1] = test system: TrxR (SH-SY5Y cell lysate); assay: Colorimetric detection of cell lysate TrxR activity (DTNB); assay type: biochemical, human; details: positive control, 20 µM, DTNB absorbance over 20 min
Source text: We further analyzed the potential of adamantane–sclareol hybrids to inhibit TrxR enzyme activity using a colorimetric assay for the detection of TrxR activity in cell lysates. This kinetic assay is based on the ability of TrxR to reduce its substrate 5,5ʹ-dithiobis(2-nitrobenzoic acid) (DTNB) to the yellow product 5-thio-2-nitrobenzoic acid (TNB) in the presence of NADPH. The absorbance of the produced TNB is considered equivalent to the enzymic activity of TrxR. In the kinetic assay, the absorbance of DTNB was measured over 20 min, resulting in a curve showing the dependence of absorbance on time.
TrxR enzyme activity in cell lysate was determined by the reduction of the TrxR substrate DTNB to the yellow product TNB in the presence of NADPH (Acros Organics, Thermo Fisher Scientific, Waltham, MA, USA). Lysate from human neuroblastoma SH-SY5Y cells was used for the TrxR assay. SH-SY5Y cells were grown to 80% confluence, washed twice with PBS, and detached using Hanks-based enzyme-free dissociation solution (Millipore, Billeri-ca, MA, USA). Collected cells were centrifuged at 2000 rpm for 3 min and rinsed in PBS buffer. After additional centrifugation, cells were lysed on ice using Lysis Buffer (50 mM Tris, 150 mM NaCl, 1 mM EDTA, 1% NP40, 0.1% SDS, 0.5% Na-deoxycholate, pH 7.8) containing protease inhibitor mix G (SERVA Electrophoresis GmbH, Heidelberg, Germany) and phosphatase inhibitor cocktail 3 (Sigma-Aldrich, Darmstadt, Germany). The cell lysates were centrifuged at 16,000× g for 15 min at 4 °C. The protein concentrations of the supernatants were determined using a Pierce^TM BCA protein assay kit (Thermo Fisher Scientific, Waltham, MA, USA). The reactions were run in 96-well plates, in a final volume of 100 μL, in 50 mM potassium phosphate buffer (pH 7.0) containing 50 μg of cell lysate proteins, 1 mM EDTA, 50 mM KCl, 0.2 mg/mL BSA, and 0.25 mM NADPH. […] Enzyme kinetics were monitored on an automated microplate reader (MultiskanSky, Thermo Fisher Scientific, Waltham, MA, USA) by measuring the increase in absorbance at 412 nm for 20 min. […]

[2] = test system: H2O2 and peroxynitrite anion levels in U87-TxR cells; assay: ROS detection by DHR, U87-TxR; assay type: cell-based, human; details: 10 µM
Description: The levels of ROS were measured in U87 and U87-TxR cells by flow cytometry. The production of superoxide anions was detected using DHE fluorescence dye, while production of H2O2 and peroxynitrite anions was detected using DHR fluorescence dye. Cells were seeded in 6-well plates (150,000 cell/well) and incubated overnight. The cells were then treated with compounds 2 or 5 (4 μM) for 24 h and 48 h. CDDP (10 μM) was used as a positive control. After the treatment period, the cells were stained with DHE or DHR for 30 min in the dark. Following incubation, cells were harvested with trypsinization and washed twice in cold phosphate buffer solution (PBS). Fluorescence was measured on a CytoFlex flow cytometer (Beckman Coulter, Indianapolis, IN, USA). Green fluorescence from the oxidized DHR dye was detected at 525 nm, while the red fluorescence from ethidium derived from DHE was detected at 585 nm. At least 10,000 events were assayed for each sample. The results were analyzed by CytExpert 2.4.0.28 software (Beckman Coulter, Indianapolis, IN, USA).

SVG p12 cells = assay: MTT cell viability assay, SVG p12; assay type: cell-based, human; details: for IC50: Homo sapiens, SVGp12, 72 h treatment, MTT, normal glial cell line; for Selectivity Index: IC50 SVG p12 vs average IC50 in A-172, U87 and U87-TxR
Description: (§1) Cell viability was measured using the colorimetric MTT assay based on the reduction of MTT into formazan dye. Cell lines were seeded into 96-well cell culture plates (4000 cells/well) in appropriate medium. After overnight incubation, cells were treated with increasing concentrations of 1, 2, 3, 4, 5, and 6 (0.5, 1, 2, 4, and 8 µM). After 72 h treatment, MTT solution (4 mg/mL) was added and plates were incubated at 37 °C with 5% CO2 for 3 h. After incubation, formazan crystals were dissolved using 100 µL DMSO, resulting in a purple color. The absorbance was measured at 570 nm with a reference wavelength of 690 nm using an automated microplate reader (MultiskanSky, Thermo Scientific, USA). The IC50 values were determined by non-linear regression analysis in GraphPad Prism 8.0.2. software (GraphPad Software, Boston, MA, USA).

U87-TxR cells [3] = assay: Cell death detection, AV/PI staining, U87-TxR; assay type: cell-based, human; details: 48 h; for cell death effect in MDR U87-TxR cells vs sensitive U87 cells: 4 µM, AV/PI; for percentage of early apoptotic cells vs untreated: 2 µM and 4 µM, particularly at 4 µM
Description: To evaluate the extent of cell death upon treatment with adamantane–sclareol hybrids, apoptotic, necrotic, and viable cell populations were assessed using dual staining with AV/PI. U87 and U87-TxR cells were seeded in 6-well plates at a density of 150,000 cells per well and incubated overnight. Subsequently, cells were treated with 2 and 5 (2 µM and 4 µM) for 48 h. At the end of the treatment period, cells were collected (both adherent and floating), washed, and incubated with AV/PI in binding buffer. Samples were analyzed using a CytoFLEX flow cytometer (Beckman Coulter, Indianapolis, IN, USA), with fluorescence signals detected at 525 nm (AV) and 585 nm (PI). At least 10,000 events were recorded per each condition. The percentages of viable (AV^− PI^−), early apoptotic (AV^+ PI^−), late apoptotic (AV^+ PI^+), and necrotic (AV^− PI^+) cells were calculated using CytExpert 2.4.0.28 software (Beckman Coulter, Indianapolis, IN, USA).

A-172 cells = assay: MTT cell viability assay, A-172; assay type: cell-based; details: Homo sapiens, 72 h treatment
Description: as §1

U87-TxR cells [4] = assay: MTT cell viability assay, U87-TxR; assay type: cell-based, human; details: for IC50: Homo sapiens, U87-TxR, 72 h treatment, MTT, MDR cell line; for Relative Resistance Factor: ratio of IC50 values U87-TxR / U87
Description: as §1

U87 cells = assay: MTT cell viability assay, U87; assay type: cell-based; details: Homo sapiens, U-87 MG, 72 h treatment
Description: as §1

U87-TxR cells [5] = assay: Combination with PTX, MTT assay; assay type: cell-based, human; details: Homo sapiens, U87-TxR; PTX alone, 72 h
Description: as §1
The combined effects of 2 and 5 with PTX were studied in U87-TxR cells by MTT assay as previously described. In simultaneous treatments that lasted 72 h, three concentrations of 2 and 5 (0.5, 1, and 2 µM) were combined with three concentrations of PTX (0.1 μM, 0.2 μM, and 0.5 μM). Drug combination effects were evaluated using the Chou–Talalay method, which calculates the combination index (CI) value for the degree of interaction between the drugs. This method allows quantitative assessment of synergism (CI < 1), additivity (CI close to 1), or antagonism (CI > 1) across a range of dose–effect relationships. Calcusyn® version 1.1 software was used for data analysis (Biosoft, Cambridge UK). Three data points were used for each single drug in each designed experiment. The non-constant ratio combination was chosen to assess the effect of both drugs in combination. The results are presented in a fraction-affected CI graph.

[6] = test system: mitochondrial membrane potential in U87 and U87-TxR cells; assay: TMRE mitochondrial membrane potential; assay type: cell-based, human; details: 10 µM, added 30 min before staining
Description: The cell-permeable fluorescent dye TMRE was used to evaluate mitochondrial membrane potential. TMRE selectively accumulates in active mitochondria with intact membrane potential. […] U87 and U87-TxR cells were seeded in 6-well plates at a density of 150,000 cells per well. After 24 h, cells were treated with 2 and 5 (4 µM) and incubated for an additional 24 h. After treatment, cells were trypsinized, resuspended in complete medium containing 500 nM TMRE, and incubated for 30 min at 37 °C in the dark. CCCP (10 µM) was used as a positive control for mitochondrial depolarization and added 30 min before staining. For each sample, at least 10,000 events were collected. TMRE was detected at […]. The results were calculated using CytExpert 2.4.0.28 software (Beckman Coulter, Indianapolis, IN, USA).

Row | IC50 (U87-TxR cells [4]) [nM] | IC50 (U87 cells) [nM] | Molecule | IC50 (SVG p12 cells) [nM] | Selectivity Index (SVG p12 cells) | cell death effect in MDR U87-TxR cells vs sensitive U87 cells (U87-TxR cells [3]) | IC50 (A-172 cells) [nM] | Relative Resistance Factor (U87-TxR cells [4]) | further results
1 |  |  | O=C(O)CC([S-])C(=O)O.[Au+] (stereo not drawn) [ATM, aurothiomalate, reference compound] |  |  |  |  |  | TrxR enzyme activity [1]: inhibited TrxR activity
2 |  |  | [NH2][Pt]([NH2])([Cl])[Cl] [CDDP, Cisplatin, reference compound] |  |  |  |  |  | positive control effect on ROS, U87-TxR vs U87 [2]: more potent effects in MDR U87-TxR cells
3 | 2080 ± 37 | 2400 ± 61 | CC1(C)CCC[C@]2(C)[C@@H](CC[C@@](C)(O)/C=C/c3ccc(CNCCCCCCNCC45CC6CC(CC(C6)C4)C5)s3)[C@](C)(O)CC[C@@H]12 [Compound 1] | 5330 ± 132 | 2.300 ^S | significantly better effects in MDR U87-TxR cells | 2470 ± 36 | 0.869 | 
4 | 2310 ± 52 | 2200 ± 52 | CC1(C)CCC[C@]2(C)[C@@H](CC[C@@](C)(O)/C=C/c3ccc(CNCCCCCCNCCC45CC6CC(CC(C6)C4)C5)s3)[C@](C)(O)CC[C@@H]12 [Compound 3] | 9290 ± 169 | 3.541 ^S | significantly better effects in MDR U87-TxR cells | 3360 ± 57 | 1.049 | percentage of early apoptotic cells vs untreated (U87-TxR cells [3]): significant increase
5 | 1460 ± 27 | 1250 ± 36 | CC1(C)CCC[C@]2(C)[C@@H](CC[C@@](C)(O)/C=C/c3ccc(CNCCCCCCNCC45CC6CC(CC(C6)C4)C5)o3)[C@](C)(O)CC[C@@H]12 [Compound 4] | 918 ± 22 | 0.686 | significantly better effects in MDR U87-TxR cells | 1380 ± 18 | 1.160 | percentage of early apoptotic cells vs untreated (U87-TxR cells [3]): significant increase; early apoptotic population (AV+ PI−) (U87-TxR cells [3]; untreated cells 4.17%, Figure S3): 26.84%
6 | 1910 ± 46 | 2470 ± 66 | CC1(C)CCC[C@]2(C)[C@@H](CC[C@@](C)(O)/C=C/c3ccc(CNCCCCCCNCCC45CC6CC(CC(C6)C4)C5)o3)[C@](C)(O)CC[C@@H]12 [Compound 6] | 1160 ± 27 | 0.547 |  | 2000 ± 26 |  | 
7 |  |  | CC(=O)O[C@H]1C(=O)[C@@]2(C)[C@H]([C@H](OC(=O)c3ccccc3)[C@]3(O)C[C@H](OC(=O)[C@H](O)[C@@H](NC(=O)c4ccccc4)c4ccccc4)C(C)=C1C3(C)C)[C@]1(OC(C)=O)CO[C@@H]1C[C@@H]2O [PTX, paclitaxel, reference compound] |  |  |  |  |  | IC50 (U87-TxR cells [5]): 688 ± 22 nM
8 |  |  | Carbonyl cyanide m-chlorophenyl hydrazine [CCCP, reference compound] |  |  |  |  |  | positive control effect on mitochondrial membrane potential, U87-TxR vs U87 [6]: more potent effects in MDR U87-TxR cells
